Data from US7816522B2, “Triazolone derivatives” (Eisai Co., Ltd., priority 2006, dated 2010).

target: T1, human clotting factor VIIa (Homo sapiens, UniProt P08709); experiment: Inhibitory activity against clotting factor VIIa (chromogenic substrate Spectrozyme FVIIa, TF/Factor VIIa enzyme solution); assay type: biochemical; details: human Factor VIIa 5 nmol/L with human TF 10 nmol/L, room temperature 40 minutes, 405 nm
T1 construct: a human clotting factor VIIa (hereinafter, “Factor VIIa”) purified sample; purchased Enzyme Research Laboratories HFVIIa
How it was run: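 Human Factor VIIa (5 nmol/L) with human TF (10 nmol/L) in Tris-BSA buffer pH 7.4 containing 15 mmol/L CaCl2 and cephalin, with Spectrozyme FVIIa substrate. Reaction 40 min at room temperature; 4-nitroanilide read at 405 nm. IC50 by non-linear regression over 100 μmol/L–0.1 nmol/L.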

T1 sequence (P08709 213-466 limits assumed): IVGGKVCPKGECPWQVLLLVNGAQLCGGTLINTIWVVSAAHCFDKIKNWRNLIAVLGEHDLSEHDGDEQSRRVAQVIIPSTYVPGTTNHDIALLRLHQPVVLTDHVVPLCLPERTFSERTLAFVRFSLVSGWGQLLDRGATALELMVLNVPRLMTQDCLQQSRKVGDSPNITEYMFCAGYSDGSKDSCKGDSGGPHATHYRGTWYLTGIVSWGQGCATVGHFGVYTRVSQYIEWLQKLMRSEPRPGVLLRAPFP
T1 sequence (P08709 61-212 limits assumed): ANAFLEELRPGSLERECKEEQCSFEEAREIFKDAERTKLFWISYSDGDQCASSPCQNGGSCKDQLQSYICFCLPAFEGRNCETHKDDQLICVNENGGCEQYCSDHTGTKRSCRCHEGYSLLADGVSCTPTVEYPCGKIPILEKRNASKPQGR
T1 sequence (P13726 33-295 partner): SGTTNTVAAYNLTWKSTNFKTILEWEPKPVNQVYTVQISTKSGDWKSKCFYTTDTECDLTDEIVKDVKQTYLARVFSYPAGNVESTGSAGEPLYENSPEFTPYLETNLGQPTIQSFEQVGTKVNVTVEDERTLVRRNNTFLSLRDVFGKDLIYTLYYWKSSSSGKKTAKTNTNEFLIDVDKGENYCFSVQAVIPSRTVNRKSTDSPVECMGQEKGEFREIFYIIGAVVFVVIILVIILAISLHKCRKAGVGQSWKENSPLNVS

Row | SMILES | IC50 [nM]
1 | COc1cc(F)c(C(Nc2ccc(C(=N)N)c(F)c2)c2nn(-c3ncccn3)c(=O)[nH]2)cc1OC (racemic) [Example 143, (R) and (S)-2-fluoro-4-{[(2-fluoro-4,5-dimethoxyphenyl)-(5-oxo-1-pyrimidin-2-yl-4,5-dihydro-1H-[1,2,4]triazol-3-yl)methyl]amino}benzamidine acetate] | 23
2 | COc1cc(C(Nc2ccc(C(=N)N)cc2)c2nn(-c3ccsc3C(=O)O)c(=O)[nH]2)cnc1OC (racemic) [Example 169, 3-{3-[(R) and (S)-(4-carbamimidoylphenylamino)-(5,6-dimethoxypyridin-3-yl)methyl]-5-oxo-4,5-dihydro-[1,2,4]triazol-1-yl}thiophene-2-carboxylic acid acetate] | 2.8
3 | COc1cc(C(Nc2ccc(C(=N)N)c(F)c2)c2nn(-c3ccsc3C(=O)O)c(=O)[nH]2)c(F)c2c1OCCO2 (racemic) [Example 231, 3-{3-[(4-Carbamimidoyl-3-fluorophenylamino)-(5-fluoro-8-methoxy-2,3-dihydrobenzo[1,4]dioxin-6-yl)methyl]-5-oxo-4,5-dihydro-[1,2,4]triazol-1-yl}thiophene-2-carboxylic acid] | 6.5
4 | CCOc1cc(C(Nc2ccc(C(=N)N)cc2)c2nn(-c3cccnn3)c(=O)[nH]2)ccc1OC (racemic) [Example 121, (R) and (S)-4-{[(3-ethoxy-4-methoxyphenyl)-(5-oxo-1-pyridazin-3-yl-4,5-dihydro-1H-[1,2,4]triazol-3-yl)methyl]amino}benzamidine acetate] | 6.8
5 | COc1cc(OCCCO)c(F)c(C(Nc2ccc(C(=N)N)cc2)c2nn(-c3[nH]ncc3C(=O)O)c(=O)[nH]2)c1 (single isomer, unassigned) [Example 198, (R) or (S)-5-(3-{(4-Carbamimidoylphenylamino)-[2-fluoro-3-(3-hydroxypropoxy)-5-methoxyphenyl]methyl}-5-oxo-4,5-dihydro-[1,2,4]triazol-1-yl)-1H-pyrazole-4-carboxylic acid acetate] | 19.6

More lines, in order of falling IC50, values ahead:

Row | IC50 [nM] | SMILES
6 | 16.9 | CCOc1cc(CF)cc(C(Nc2ccc(C(=N)N)cc2)c2nn(-c3ncccn3)c(=O)[nH]2)c1 (stereo not shown) [Example 84, 4-{[(3-ethoxy-5-fluoromethylphenyl)-(5-oxo-1-pyrimidin-2-yl-4,5-dihydro-1H-[1,2,4]triazol-3-yl)methyl]amino}benzamidine acetate]
7 | 9.3 | COc1cc(OCCO)c(F)c(C(Nc2ccc(C(=N)N)cc2)c2nn(-c3ncccn3)c(=O)[nH]2)c1 (stereo not shown) [Example 181, 4-({[2-fluoro-3-(2-hydroxyethoxy)-5-methoxyphenyl]-(5-oxo-1-pyrimidin-2-yl-4,5-dihydro-1H-[1,2,4]triazol-3-yl)methyl}amino)benzamidine acetate]
8 | 8.9 | COc1cc(OCF)c(F)c(C(Nc2ccc(C(=N)N)cc2)c2nn(-c3ncccn3)c(=O)[nH]2)c1 (racemic) [Example 103, 4-{[(R) and (S)-(2-fluoro-3-fluoromethoxy-5-methoxyphenyl)-(5-oxo-1-pyrimidin-2-yl-4,5-dihydro-1H-[1,2,4]triazol-3-yl)methyl]amino}benzamidine acetate]
9 | 4.9 | CCOc1cc(OCCF)c(F)c(C(Nc2ccc(C(=N)N)cc2)c2nn(-c3cccnn3)c(=O)[nH]2)c1 (racemic) [Example 70, 4-({(R) and (S)-[5-ethoxy-2-fluoro-3-(2-fluoroethoxy)phenyl]-(5-oxo-1-pyridazin-3-yl-4,5-dihydro-1H-[1,2,4]triazol-3-yl)methyl}amino)benzamidine acetate]
10 | 4.2 | COCCOc1c(OC)cc(C(Nc2ccc(C(=N)N)cc2)c2nn(-c3ccccc3OC)c(=O)[nH]2)cc1OC (stereo not shown) [Example 87, 4-({[3,5-dimethoxy-4-(2-methoxyethoxy)phenyl]-[1-(2-methoxyphenyl)-5-oxo-4,5-dihydro-1H-[1,2,4]triazol-3-yl]methyl}amino)benzamidine acetate]
